According to patent US20050107616A1, “Alpha-ketoamide derivatives as cathepsin k inhibitors” (priority 2001, published 2005):

Biological target: T1, human cathepsin K (Homo sapiens, UniProt P43235)
T1 construct: The proform of cathepsin K was converted to mature cathepsin K by brief exposure to pH 4; made in house; host or cells: baculovirus; Trichoplusia ni High Five cells (virus raised in Sf-9)
T1 sequence (P43235 115-329): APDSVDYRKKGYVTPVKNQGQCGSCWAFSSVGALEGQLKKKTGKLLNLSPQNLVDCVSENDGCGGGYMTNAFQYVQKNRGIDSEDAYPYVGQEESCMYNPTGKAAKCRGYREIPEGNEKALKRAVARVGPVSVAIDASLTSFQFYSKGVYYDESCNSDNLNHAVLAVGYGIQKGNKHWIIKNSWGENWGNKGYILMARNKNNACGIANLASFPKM
Test: Cathepsin K inhibition assay, fluorogenic substrate Cbz-Phe-Arg-AMC, progress curve method
Format: biochemical
Settings: Table 1; human recombinant enzyme, pH 5.5, 30° C., 10 μM substrate; read-out: hCat K Ki
Method: All assays for cathepsin K were carried out with human and rat recombinant enzyme. Assays for cathepsins S Et V were also carried out with human recombinant enzyme. Assays for human cathepsins B. H. and L were carried out with enzyme, purchased from Athens Research and Technology, Inc., prepared from human liver tissue. […] A stock substrate solution of Cbz-Phe-Arg-AMC was prepared at a concentration of 50 mM in dimethyl sulfoxide. This substrate was diluted into the assay for a final substrate concentration of 10 μM in the rat cathepsin K, human cathepsin K, and human cathepsin B assays; a final substrate concentration of 5 μM in the human cathepsin L assay; and a final substrate concentration of 2 μM in the human cathepsin V assay.
All assays contained 10% dimethyl sulfoxide. […] All assays were conducted at 30° C. Product fluorescence (excitation at 360 nm; emission at 440 nm, (except cathepsin H which used excitation at 340 nm; emission at 420 nm)) was monitored with a PerSeptive Biosystems Cytofluor II fluorescence plate reader. Product progress curves were generated over 2.3 h monitoring the formation of 7-amino-4-methylcoumarin product (or β-naphthalamide for cathepsin H).
Two liters of Spodoptera frugiperda (Sf-9) cells (ATCC) were grown in Grace's Supplemented medium (Life Technologies) supplemented with 2 g/L glucose, 10% a fetal bovine serum (HyClone) and 0.10% pluronic F-68 (Life Technologies). […] The cells continued to grow for 72 h post-infection, before the virus was harvested by centrifugation at 1400× g for 30 min.
One and one-half liters of Trichoplusia ni (T. ni) High Five (TM) cells [JRH Biosciences, Woodland, Calif. […] Media were separated from cells at a rate of 1 L/min using the Centritech 100 (TM) continuous-flow centrifuge (DuPont) operating at 200× g.
Protein Purification: Media (human and rat) were filtered through a Whatman 3 filter, and then loaded onto a 25 mL Poros HS II (26 mm×47 mm) cation exchange column equilibrated in 25 mM sodium acetate at pH 5.5 (equilibration buffer). The column was washed until the absorbance reached the baseline value, and then the protein was eluted with a linear gradient from 0-2 M sodium chloride in the equilibration buffer. Column fractions were analyzed by SDS-PAGE, N-terminal sequencing, and mass spectrometry. Fractions containing the proform of cathepsin K were pooled and frozen at −80° C. The proform was concentrated in an Amicon Centriprep 10 and fractionated with a Superdex 75 column (26 mm×600 mm, Pharmacia) equilibrated in 400 mM sodium chloride, 25 mM sodium acetate at pH 5.5.
Cathepsin K Activation: The proform of cathepsin K was converted to mature cathepsin K by brief exposure to pH 4 in the presence of 5 mM L-cysteine. Typically, 5 mM L-cysteine was added to 10 mL of approximately 1 mg/mL procathepsin K. One mL of this solution was diluted ten-fold into 450 mM sodium acetate at pH 4.0 containing 5 mM L-cysteine. This solution was reacted at 23° C. for 2 min before neutralization with 2 mL 1.8 M sodium acetate at pH 6.0. The neutralized sample was added to the remaining 9 mL of procathepsin K. The mixture was incubated at 4° C. for 2-3 days. The activated cathepsin K was chromatographed on a Poros HS II column as described above.
Potential inhibitors were evaluated using the progress curve method. Assays were carried out in the presence of variable concentrations of test compound. Reactions were initiated by addition of buffered solutions of inhibitor and substrate to enzyme. Data analysis was conducted according to one of two procedures depending on the appearance of the progress curves in the presence of inhibitors. […] Ki values were calculated from IC50 values using equation 2 assuming a competitive model. [formula]

CCCC[C@H](NC(=O)O[C@@H](Cn1ccc(-c2ccc(C(F)(F)F)cc2)n1)C(C)(C)C)C(=O)C(=O)Nc1ccn[nH]1 [Example 2, (1R)-2,2-dimethyl-1-({3-[4-(trifluoromethyl)phenyl]-1H-pyrazol-1-yl}methyl)propyl(1S)-1-[oxo(1H-pyrazol-3-ylamino)acetyl]pentylcarbamate]
Ki: 1 to 100 nM

CCCC[C@H](NC(=O)O[C@H](Cc1nnc(-c2ccc(C(F)(F)F)cc2)o1)C(C)(C)C)C(=O)C(=O)Nc1ccn[nH]1 [Example 3]
Ki: 0.01 to 1 nM

CCCC[C@H](NC(=O)O[C@H](Cc1nnc(-c2ccc(F)cc2)o1)C(C)(C)C)C(=O)C(=O)NCc1cccnc1 [Example 4, (1R)-1-{[5-(4-fluorophenyl)-1,3,4-oxadiazol-2-yl]methyl}-2,2-dimethylpropyl(1S)-1-{oxo[(3-pyridinylmethyl)amino]acetyl}pentylcarbamate]
Ki: 1 to 100 nM

CCCC[C@H](NC(=O)O[C@H](Cn1ccc(-c2ccc(C(F)(F)F)cc2)n1)C(C)(C)C)C(=O)C(=O)Nc1ccccn1 [Example 5, (1S)-2,2-dimethyl-1-({3-[4-(trifluoromethyl)phenyl]-1H-pyrazol-1-yl}methyl)propyl(1S)-1-[oxo(2-pyridinylamino)acetyl]pentylcarbamate]
Ki: 1 to 100 nM

CCCC[C@H](NC(=O)O[C@H](Cn1cnc(-c2ccc(F)cc2)c1)C(C)(C)C)C(=O)C(=O)N[C@H](C)c1ccccc1 [Example 6, (1S)-1-{[4-(4-fluorophenyl)-1H-imidazol-1-yl]methyl}-2,2-dimethylpropyl (1S)-1-(oxo{[(1R)-1-phenylethyl]amino}acetyl)pentylcarbamate]
Ki: 0.01 to 1 nM

CCCC[C@H](NC(=O)O[C@H](Cc1nnc(-c2ccccc2)o1)C(C)(C)CC)C(=O)C(=O)N[C@H](C)c1ccccc1 [Example 8, (1R)-2,2-dimethyl-1-[(5-phenyl-1,3,4-oxadiazol-2-yl)methyl]butyl (1S)-1-(oxo{[(1R)-1-phenylethyl]amino}acetyl)pentylcarbamate]
Ki: 1 to 100 nM

CCCC[C@H](NC(=O)O[C@@H](Cc1nnc(-c2ccccc2)o1)C(C)(C)CC)C(=O)C(=O)N[C@H](C)c1ccccc1 [Example 9, (1S)-2,2-dimethyl-1-[(5-phenyl-1,3,4-oxadiazol-2-yl)methyl]butyl(1S)-1-(oxo{[(1R)-1-phenylethyl]amino}acetyl)pentylcarbamate]
Ki: 100 to 10000 nM

CCCC[C@H](NC(=O)O[C@H](Cc1nnc(-c2ccccc2)o1)C(C)C)C(=O)C(=O)N[C@H](C)c1ccccc1 [Example 10, (1R)-2-methyl-1-[(5-phenyl-1,3,4-oxadiazol-2-yl)methyl]propyl(1S)-1-(oxo{[(1R)-1-phenylethyl]amino}acetyl)pentylcarbamate]
Ki: 0.01 to 1 nM

CCCC[C@H](NC(=O)O[C@@H](Cc1nnc(-c2ccccc2)o1)C(C)C)C(=O)C(=O)N[C@H](C)c1ccccc1 [Example 11, (1S)-2-methyl-1-[(5-phenyl-1,3,4-oxadiazol-2-yl)methyl]propyl(1S)-1-(oxo{[(1R)-1-phenylethyl]amino}acetyl)pentylcarbamate]
Ki: 100 to 10000 nM

CCCC[C@H](NC(=O)O[C@H](Cn1cnc(-c2ccccc2)c1)C(C)(C)C)C(=O)C(=O)N[C@H](C)c1ccccc1 [Example 12, (1S)-2,2-dimethyl-1-[(4-phenyl-1H-imidazol-1-yl)methyl]propyl(1S)-1-(oxo{[(1R)-1-phenylethyl]amino}acetyl)pentylcarbamate]
Ki: 0.01 to 1 nM

CCCC[C@H](NC(=O)O[C@@H](Cn1cnc(-c2ccccc2)c1)C(C)(C)C)C(=O)C(=O)N[C@H](C)c1ccccc1 [Example 13, (1R)-2,2-dimethyl-1-[(4-phenyl-1H-imidazol-1-yl)methyl]propyl(1S)-1-(oxo{[(1R)-1-phenylethyl]amino}acetyl)pentylcarbamate]
Ki: 100 to 10000 nM

CCCC[C@H](NC(=O)O[C@H](Cn1cc(-c2ccc(C(F)(F)F)cc2)cn1)C(C)(C)C)C(=O)C(=O)Nc1ccn[nH]1 [Example 14, (1S)-2,2-dimethyl-1-({4-[4-(trifluoromethyl)phenyl]-1H-pyrazol-1-yl}methyl)propyl(1S)-1-[oxo(1H-pyrazol-5-ylamino)acetyl]pentylcarbamate]
Ki: 0.01 to 1 nM

CCCC[C@H](NC(=O)O[C@H](Cc1nnc(-c2ccccc2)o1)C(C)(C)C)C(=O)C(=O)N[C@H](C)c1ccccc1 [Example 15, (1R)-2,2-dimethyl-1-[(5-phenyl-1,3,4-oxadiazol-2-yl)methyl]propyl(1S)-1-(oxo{[(1R)-1-phenylethyl]amino}acetyl)pentylcarbamate]
Ki: 0.01 to 1 nM

CCCC[C@H](NC(=O)O[C@@H](Cc1nnc(-c2ccccc2)o1)C(C)(C)C)C(=O)C(=O)N[C@H](C)c1ccccc1 [Example 16, (1S)-2,2-dimethyl-1-[(5-phenyl-1,3,4-oxadiazol-2-yl)methyl]propyl (1S)-1-(oxo{[(1R)-1-phenylethyl]amino}acetyl)pentylcarbamate]
Ki: 100 to 10000 nM

CCCC[C@H](NC(=O)O[C@H](Cc1nnc(-c2ccc(C(F)(F)F)cc2)o1)C(C)(C)C)C(=O)C(=O)N[C@H](C)c1ccccc1 [Example 17]
Ki: 0.01 to 1 nM

CCCC[C@H](NC(=O)O[C@@H](Cc1nnc(-c2ccc(C(F)(F)F)cc2)o1)C(C)(C)C)C(=O)C(=O)N[C@H](C)c1ccccc1 [Example 18, (1S)-2,2-dimethyl-1-({5-[4-(trifluoromethyl)phenyl]-1,3,4-oxadiazol-2-yl}methyl)propyl(1S)-1-(oxo{[(1R)-1-phenylethyl]amino}acetyl)pentylcarbamate]
Ki: 100 to 10000 nM

CCCC[C@H](NC(=O)O[C@H](Cc1nnc(-c2ccc(F)cc2)o1)C(C)(C)C)C(=O)C(=O)N[C@H](C)c1ccccc1 [Example 19, (1R)-1-{[5-(4-fluorophenyl)-1,3,4-oxadiazol-2-yl]methyl}-2,2-dimethylpropyl(1S)-1-(oxo{[(1R)-1-phenylethyl]amino}acetyl)pentylcarbamate]
Ki: 0.01 to 1 nM

CCCC[C@H](NC(=O)O[C@@H](Cc1nnc(-c2ccc(F)cc2)o1)C(C)(C)C)C(=O)C(=O)N[C@H](C)c1ccccc1 [Example 20, (1S)-1-{[5-(4-fluorophenyl)-1,3,4-oxadiazol-2-yl]methyl}-2,2-dimethylpropyl(1S)-1-(oxo{[(1R)-1-phenylethyl]amino}acetyl)pentylcarbamate]
Ki: 100 to 10000 nM

CCCC[C@H](NC(=O)O[C@H](Cc1nnc(-c2ccc(F)cc2)o1)C(C)(C)C)C(=O)C(=O)Nc1ccccn1 [Example 21, (1R)-1-{[5-(4-fluorophenyl)-1,3,4-oxadiazol-2-yl]methyl}-2,2-dimethylpropyl(1S)-1-[oxo(2-pyridinylamino)acetyl]pentylcarbamate]
Ki: 100 to 10000 nM

CCCC[C@H](NC(=O)O[C@H](Cc1nnc(-c2ccc(F)cc2)o1)C(C)(C)C)C(=O)C(=O)Nc1ccn[nH]1 [Example 23, (1R)-1-{[5-(4-fluorophenyl)-1,3,4-oxadiazol-2-yl]methyl}-2,2-dimethylpropyl(1S)-1-[oxo(1H-pyrazol-5-ylamino)acetyl]pentylcarbamate]
Ki: 0.01 to 1 nM

CCCC[C@H](NC(=O)O[C@H](Cc1nnc(-c2ccc(F)cc2)o1)C(C)(C)C)C(=O)C(=O)NCc1ccncc1 [Example 24, (1R)-1-{[5-(4-fluorophenyl)-1,3,4-oxadiazol-2-yl]methyl}-2,2-dimethylpropyl(1S)-1-{oxo[(4-pyridinylmethyl)amino]acetyl}pentylcarbamate]
Ki: 1 to 100 nM

CCCC[C@H](NC(=O)O[C@H](Cc1nnc(-c2ccc(F)cc2)o1)C(C)(C)C)C(=O)C(=O)N[C@H]1CCCNC1=O [Example 25]
Ki: 0.01 to 1 nM
